Legend:
[1] = molecular target: HCV replicon 1b (Huh-9B); assay: HCV replicon activity, luciferase detection on the replicon plate; assay type: cell-based, HCV genotype 1b; conditions: Huh-9B replicon cells, luciferase signal
Description: 1b replicon (Huh.7) described in Science 285, 110-113. • Huh-9B: liver cell line with persistent bicistronic HCV genotype 1b coding sequence: [I3891ucubineo—3-3′_ET] includes firefly luciferase-ubiquitin-neomycin phosphotransferase fusion protein and EMCV-IRES driven non-structural HCV (NS3 to NS5B) coding sequence including cell culture adaptive mutations E1202G, […] and K1846T (Lohmann et al, 2001).
This assay is set up using all 96 wells of flat-bottomed 96-well plates. Plates are set up one day before addition of compounds. The assay then runs for 4 days with ELISA development taking place on the 5th day.
Exponentially growing Huh-9B monolayers are washed with sterile PBS to remove serum and treated with trypsin to detach cells from the flask.
(§1) Cells are suspended in growth media and counted using a haemocytometer. Duplicate 96 well plates are seeded with Huh-9B at a density of 10^4 cells/well in a total volume of 100 μl/well of growth medium without antibiotics as depicted below.
(§2) One of the plates is an opaque white 96-well plate used for IC50 determination based on the luciferase signal (referred as replicon plate), the other one is a clear 96-well plate used for a parallel determination of drug toxicity by methylene blue staining (referred as tox plate). Wells G12 and H12 of the tox plate are left without cells to use as buffer alone background reading.
Plates are then incubated at 37° C. in a 5% CO2 environment for 24 h to obtain a 90% confluent cell monolayer.
(§3) Doubling dilutions of each compound are generated in a separate 96 high volume capacity round bottom plate to twice their initial concentration in the assay using growth medium without antibiotics.
Five compounds (C1 to C5) are tested on each assay plate as illustrated below plus a control compound that is also included in each plate.
(§4) Compounds are tested across an 8 point doubling dilution series. The initial dilution of each compound to be tested is 25 μM and 12.5 μM for the control compound.
DMSO only wells (A1 and A2) at 1% provide the signal corresponding to maximal (100%) luciferase detection. […] The signal from the DMSO wells at 1% (maximal signal) constitutes the assay window.
(§5) For each compound dilution on the 2×96-well dilution plate 100 μl are transferred using a multichannel pipette onto the replicon and tox plates mirror wells which contain […] of medium to obtain the desired final concentration.
Media is tapped out from wells into Virkon and plates are washed once in warm PBS and tapped dry gently.
For each well 20 μl of lysis buffer is added by multichannel pipette. Lysates are stable at this point for several hours.
Luciferase assay buffer is placed it in the luminometer (Lmax, Molecular Devices).
The M injector is primed with 4×300 μl of luciferase assay buffer. The plate to be analyzed is placed in the luminometer and […] of luciferase assay buffer injected automatically into one well followed by 4 seconds integration read out.
After one second delay a second well is injected with 100 μl of luciferase assay buffer followed by 4 seconds integration read out and so forth until all 96 wells are analyzed.
Once the reading is finished the luminometer injection system is washed with deionised water.
The data is acquired using the SOFTmax for Lmax Pro software package.
(§6) SOFTmax data files are exported as Excel or text files. A standard four parameters non-linear regression analysis of the data obtained from each compound is then used to calculate the IC50.
(§7) In the above analysis all replicate wells are meaned. The % of control is then calculated for each concentration point as a percentage of the DMSO control wells.

[2] = tested on: Huh-9B; assay: Toxicity determination on the tox plate by methylene blue staining; assay type: cell-based; conditions: Huh-9B cells, parallel tox plate
Procedure: as §1, §2, §3, §4, §5
Media is tapped out from wells into Virkon and plates tapped dry gently. To each well 100 μl of 0.5% solution of methylene blue in 50% methanol is added to all wells including blanks (G12 and H12). Plates are left at RT for a minimum of 1 h. Plates are then rinsed gently by immersing in a plastic box with water, tapped dry gently and left open until they are fully dry. Dye is solubilized adding 100 μl of 1% lauroylsarcosine to each well and shaking for 1 h at 37° C. Plates are read on the SpectraMax spectrophotometer at 620 nm wavelength using the SOFTmax Pro software package.
as §6, §7

| Compound | IC50 [1] | Replicon TD50 [2] | IC50 ([1]; Hepatitis C virus) |
| --- | --- | --- | --- |
| 1-(4-{6-[3-Fluoro-4-(2-methoxy-ethoxy)-phenyl]-quinazolin-4-ylamino}-phenyl)-5-methyl-1H-[1,2,4]triazole-3-carboxylic acid [Example 28] | 5 to 20 µM | ** (** >25 μM) | – |
| Ic1ccc2ncnc(Nc3ccc(-n4cncn4)cc3)c2c1 [Example 1, (6-Iodo-quinazolin-4-yl)-(4-[1,2,4]triazol-1-yl-phenyl)-amine] | – | * (* <25 μM) | < 5 µM |
| CC(C)(C)c1ccc2ncnc(Nc3ccc(-n4cncn4)cc3)c2c1 [Example 2, (6-tert-Butyl-quinazolin-4-yl)-(4-[1,2,4]triazol-1-yl-phenyl)-amine] | – | ** (** >25 μM) | 5 to 20 µM |
| COc1cc2c(Nc3ccc(-n4cncn4)cc3)ncnc2cc1OCCCCl [Example 3, [7-(3-Chloro-propoxy)-6-methoxy-quinazolin-4-yl]-(4-[1,2,4]triazol-1-yl-phenyl)amine] | – | ** (** >25 μM) | < 5 µM |
| COc1cc2c(Nc3ccc(-n4cncn4)cc3)ncnc2cc1OCCCN1CCOCC1 [Example 4, [6-Methoxy-7-(3-morpholin-4-yl-propoxy)-quinazolin-4-yl]-(4-[1,2,4]triazol-1-yl-phenyl)-amine] | – | ** (** >25 μM) | 5 to 20 µM |
| Fc1ccc(-c2ccc3ncnc(Nc4ccc(-n5cncn5)cc4)c3c2)cc1F [Example 5, [6-(3,4-Difluoro-phenyl)-quinazolin-4-yl]-(4-[1,2,4]triazol-1-yl-phenyl)-amine] | – | ** (** >25 μM) | < 5 µM |
| Fc1cc(-c2ccc3ncnc(Nc4ccc(-n5cncn5)cc4)c3c2)ccc1Cl [Example 6, [6-(4-Chloro-3-fluoro-phenyl)-quinazolin-4-yl]-(4-[1,2,4]triazol-1-yl-phenyl)-amine] | – | ** (** >25 μM) | > 20 µM |
| COc1ccc(-c2ccc3ncnc(Nc4ccc(-n5cncn5)cc4)c3c2)cc1F [Example 7, [6-(3-Fluoro-4-methoxy-phenyl)-quinazolin-4-yl]-(4-[1,2,4]triazol-1-yl-phenyl)-amine] | – | ** (** >25 μM) | < 5 µM |
| CCOc1ccc(-c2ccc3ncnc(Nc4ccc(-n5cncn5)cc4)c3c2)cc1F [Example 8, [6-(4-Ethoxy-3-fluoro-phenyl)-quinazolin-4-yl]-(4-[1,2,4]triazol-1-yl-phenyl)-amine] | – | ** (** >25 μM) | < 5 µM |
| COCCOc1ccc(-c2ccc3ncnc(Nc4ccc(-n5cncn5)cc4)c3c2)cc1F [Example 9, {6-[3-Fluoro-4-(2-methoxy-ethoxy)-phenyl]-quinazolin-4-yl}-(4-[1,2,4]triazol-1-yl-phenyl)-amine] | – | ** (** >25 μM) | < 5 µM |
| CCOc1ccc(-c2ccc3ncnc(Nc4ccc(-n5cncn5)cc4)c3c2)cc1OCC [Example 11, [6-(3,4-Diethoxy-phenyl)-quinazolin-4-yl]-(4-[1,2,4]triazol-1-yl-phenyl)-amine] | – | ** (** >25 μM) | < 5 µM |
| CN(C)CCOc1ccc(-c2ccc3ncnc(Nc4ccc(-n5cncn5)cc4)c3c2)cc1 [Example 12, {6-[4-(2-Dimethylamino-ethoxy)-phenyl]-quinazolin-4-yl}-(4-[1,2,4]triazol-1-yl-phenyl)-amine] | – | * (* <25 μM) | < 5 µM |
| c1cc(COc2ccc(-c3ccc4ncnc(Nc5ccc(-n6cncn6)cc5)c4c3)cc2)ccn1 [Example 13] | 5 to 20 µM | * (* <25 μM) | – |
| c1nc(Nc2ccc(-n3cncn3)cc2)c2cc(-c3ccc(N4CCOCC4)cc3)ccc2n1 [Example 14] | < 5 µM | * (* <25 μM) | – |
| c1nc(Nc2ccc(-n3cncn3)cc2)c2cc(-c3ccc4c(c3)OCCO4)ccc2n1 [Example 15, [6-(2,3-Dihydro-benzo[1,4]dioxin-6-yl)-quinazolin-4-yl]-(4-[1,2,4]triazol-1-yl-phenyl)-amine] | – | ** (** >25 μM) | < 5 µM |
